This is an account of results in patent US4824862A, “3-phenyl-2-styrylpyrrolidines, preparation and use thereof” (BASF Aktiengesellschaft, priority 1987, dated 1989).

What all share (format): biochemical
The test system of test [1] is Dopamine uptake (3H-dopamine, corpus striatum synaptosomes). Briefly: Inhibition of dopamine uptake in rat brain synaptosomes (corpus striatum). The following applies: for IC50: rat corpus striatum synaptosomes, 3H-dopamine, 37° C., read-out: Inhibition of neurotransmitter uptake in synaptosomes, Dopamine IC 50. From the text:
(§1) The mode of action of a group of therapeutically frequently used antidepressants (for example tricyclic antidepressants) include the inhibition of the neuronal uptake of transmitter substances (norepinephrine, dopamine, serotonin). This property is utilized in biological test models to characterize potential antidepressants.
(§2) The following method was used: Inhibition of neurotransmitter uptake in rat brain synaptosomes
(§3) Hippocampus, corpus striatum and cortex of rat brains were dissected out and homogenized in 0.32M sucrose solution. Differential centrifugation gave synaptosomes which were suspended in buffer solution. Synaptosomes are capable of actively taking up added neurotransmitter substances (for example norepinephrine, dopamine, serotonin) from the surrounding medium. With the aid of uptake inhibitors it is possible to counteract this process to a degree which depends on the concentration. The synaptosomes were mixed with the test substances in various concentrations and then incubated at 37° C. with ^3 H-norepinephrine (hippocampus), ^3 H-dopamine (corpus striatum) and ^3 H-serotonin (cortex). The substrate concentration was about […]. The uptake was determined by dilution with ice-cold buffer solution; thereafter the synaptosomes were separated off by centrifugation, and the ^3 H activity was measured in the sediment. A blank value was determined by incubating at 0° C.
(§4) The median inhibitory concentration (IC 50) was calculated from the inhibitor values found for the various inhibitor concentrations by comparison with the blank test by linear regression following logit-log conversion.

Test [2] relates to Serotonin uptake (3H-serotonin, cortex synaptosomes). In words: Inhibition of serotonin uptake in rat brain synaptosomes (cortex). The following applies: 37° C., read-out: Inhibition of neurotransmitter uptake in synaptosomes, Serotonin IC 50.
Source text: as §1, §2, §3, §4

Test [3] relates to Norepinephrine uptake (3H-norepinephrine, hippocampus synaptosomes). Briefly: Inhibition of norepinephrine uptake in rat brain synaptosomes (hippocampus). The following applies: for IC50: rat hippocampus synaptosomes, 3H-norepinephrine, 37° C., read-out: Inhibition of neurotransmitter uptake in synaptosomes, Norepinephrine IC 50.
Source text: as §1, §2, §3, §4

Consider `CN1CC[C@@H](c2ccccc2)[C@H]1/C=C/c1ccccc1` (relative stereo) [Example 1 cis, cis-3-phenyl-2-trans-styryl-N-methylpyrrolidine], for which the IC50 in test [1] is 120 nM; in test [2] it was > 1000 nM; in test [3], 29 nM.

As to `CN1CC[C@@H](c2ccccc2)[C@@H]1/C=C/c1ccccc1` (relative stereo) [Example 1 trans, trans-3-phenyl-2-trans-styryl-N-methylpyrrolidine], the IC50 in test [1] was 92 nM; in test [2], > 1000 nM; in test [3], 7.3 nM. Also, the “potency of inhibition of noradrenaline uptake compared with imipramine, in words” value in test [3] is on record as “appreciably exceeded by the compounds according to the invention”.

As for `CCN1CC[C@@H](c2ccccc2)[C@H]1/C=C/c1ccccc1` (relative stereo) [Example 2 cis, cis-3-phenyl-2-trans-styryl-N-ethylpyrrolidine], the IC50 in test [1] is 180 nM; in test [2], > 1000 nM; in test [3], 43 nM.

In the case of `CCN1CC[C@@H](c2ccccc2)[C@@H]1/C=C/c1ccccc1` (relative stereo) [Example 2 trans, trans-3-phenyl-2-trans-styryl-N-ethylpyrrolidine], the IC50 is 23 nM in test [1], > 1000 nM in test [2] and 5.5 nM in test [3]. For the same compound, the “potency of inhibition of noradrenaline uptake compared with imipramine, in words” value in test [3] is reported as “appreciably exceeded by the compounds according to the invention”.

For `CCCN1CC[C@@H](c2ccccc2)[C@H]1/C=C/c1ccccc1` (relative stereo) [Example 3 cis, cis-3-phenyl-2-trans-styryl-N-n-propylpyrrolidine], the IC50 in test [2] is > 1000 nM.

Turning to `CCCN1CC[C@@H](c2ccccc2)[C@@H]1/C=C/c1ccccc1` (relative stereo) [Example 3 trans, trans-3-phenyl-2-trans-styryl-N-n-propylpyrrolidine], the IC50 is 400 nM in test [1], > 1000 nM in test [2] and 160 nM in test [3].

Turning to `CN(C)CCCN1c2ccccc2CCc2ccccc21` [Imipramine, reference compound], in test [1] (qualitative statement), the “inhibition of dopamine uptake, in words” value is “not possessed by imipramine”. Besides, the IC50 in test [1] was > 1000 nM; in test [2] it was 130 nM; in test [3], 14 nM.
